Results on six compounds are retold here after patent US11033609B2, “Cyclic acetylcholinesterase C-terminal peptide in the treatment or prevention of cancer or metastasis” (priority 2014, dated 2021).

Where a SMILES comes first, the peptide text is derived from it.

Type in all cases: cell-based, human
Data set [1] deals with KG1a cells. Briefly: Annexin V/propidium iodide in vitro apoptosis (cytotoxicity) assay. The settings on record: 72 h. How it is done: (§1) The acute myeloid leukaemia (AML) KG1a cell line was maintained in RPMI medium (Invitrogen) supplemented with 100 units/ml penicillin, 100 μg/ml streptomycin and 20% foetal calf serum. The multiple myeloma (MM) cell line H929, the two breast cancer cell lines (MCF7 and MDA-MB-231), the MEC-1 cells and the primary chronic lymphocytic leukaemia cells were maintained in RPMI medium supplemented with 100 units/ml penicillin, 100 μg/ml streptomycin and 10% foetal calf serum. The media used contained acetylcholine but after the initial set of experiments an additional 100 μM of acetylcholine was added to the culture media. Cells were subsequently aliquoted (10^6 cells/ml) into 24-well plates and were incubated at 37° C. in a humidified 5% carbon dioxide atmosphere for 72 h in the presence of the peptides (T15, T30, NBP-14 and the combination of T30+NBP-14) at concentrations between 0.1 nM and 1 μM. In addition, control cultures were carried out to which no peptide was added. Cells were subsequently harvested by centrifugation and were analysed by flow cytometry using the Annexin V assay or were counted using a Vi-Cell XR cell viability counter (Beckman Coulter).
(§2) Cultured cells were harvested by centrifugation and then resuspended in 195 of calcium-rich buffer. Subsequently, 5 μl of Annexin V (eBiosciences) was added to the cell suspension and cells were incubated in the dark for 10 mins prior to washing. Cells were finally resuspended in 190 μl of calcium-rich buffer together with 10 μl of propidium iodide. Apoptosis was assessed by dual-colour immunofluorescent flow cytometry using an Accuri C6 flow cytometer and data were analysed using CFlow software (BD Biosciences).
(§3) The in vitro drug sensitivity was measured using the Annexin V/propidium iodide assay. Comparison of the effects of each peptide alone or in combination in the various cell lines and primary cells are shown below.

In data set [2] the test system is MEC-1 cells. The data set is described as follows: Transwell migration assay. The settings on record: MEC-1, 1 μM NBP-14 vs baseline control. How it is done: (§4) In vitro migration assays were performed by using 6.0 μm pore size transwell migration plates (Costar, Corning, N.Y.). A total of 10^6 CLL cells in 500 μl of RPMI media were added to the upper chamber of the transwell insert. 100 ng/ml of CXCL12 was added to the baso-lateral chamber for all the cell types tested apart from KG1a cells. […] Instead, media containing 10% foetal calf serum was added to the baso-lateral chamber in these experiments. The plates were incubated for 24 h at 37° C. in 5% CO2 in the presence of the peptides (T15, T30, NBP-14 and the combination of T30+NBP-14) at concentrations between 0.1 nM and 10 μM. In addition, control cultures were carried out to which no peptide was added. Cells were subsequently harvested by centrifugation and were analysed by flow cytometry using an Accuri C6 flow cytometer (BD). None of the conditions tested induced significant cell death in the cultures. Migration of CLL cells was determined by counting cells that migrated to the lower (baso-lateral) chamber of the transwell plate and then expressed as a percentage of the total number of cells initially added to the upper (apical) chamber.

Data set [3] deals with H929 cells. The data set is described as follows: Transwell migration assay. The settings on record: H929, 1 μM NBP-14 vs baseline control. As to the method: as §4
Data set [4] concerns normal B- and T-lymphocytes. Briefly: Annexin V/propidium iodide apoptosis assay in normal cells. As to conditions: B- and T-lymphocytes from normal healthy volunteers. How it is done: as §2, §3
In order to assess the effects of the acetylcholinesterase-derived peptides on normal (non-malignant) cells, B- and T-lymphocytes were isolated from normal healthy volunteers (n=3).

Data set [5] relates to primary CLL cells. Briefly: Annexin V/propidium iodide in vitro apoptosis (cytotoxicity) assay. As to conditions: for apoptosis (cytotoxic effect): primary CLL cells derived from patients, 72 h. As to the method: as §1, §2, §3
In data set [6] the test system is MEC-1 cells. The description is as above. As to conditions: MEC-1, 72 h. As to the method: as §1, §2, §3
The test system of data set [7] is MCF7 cells. The data set is described as above. As to conditions: MCF7, 72 h, peptides 0.1 nM to 1 μM. As to the method: as §1, §2, §3
The subject of data set [8] is H929 cells. The data set is described as above. The settings on record: H929, 72 h. How it is done:
as §1, §2, §3

Data set [9] relates to MDA-MB-231 cells. The data set is described as above. The settings on record: MDA-MB-231, 72 h, peptides 0.1 nM to 1 μM. As to the method: as §1, §2, §3
Data set [10] has as its system MEC-1 cells. Briefly: In vitro proliferation (Vi-Cell XR viable cell count). The settings on record: MEC-1, concentrations above 0.1 μM. As to the method:
as §1
(§5) Cultured cells were harvested by centrifugation and were then counted using a Vi-Cell XR cell viability counter. The number of viable cells in each culture was then expressed as a percentage of the viable cells in the control cultures (no peptide).

Data set [11] relates to KG1a cells. The data set is described as above. As to conditions: concentrations above 0.1 μM. How it is done:
as §1, §5

The test system of data set [12] is MCF7 cells. The description is as above. The settings on record: MCF7, concentrations above 0.1 μM. As to the method:
as §1, §5

Data set [13] relates to H929 cells. Described as above. As to conditions: H929, concentrations above 0.1 μM. As to the method:
as §1, §5

Data set [14] has as its system MDA-MB-231 cells. The data set is described as above. How it is done:
as §1, §5

Data set [15] relates to primary CLL cells. Briefly: Transwell migration assay. The settings on record: for migration: primary CLL cells from 10 patients, 1 μM peptide, 24 h transwell. As to the method: (§6) The acute myeloid leukaemia (AML) KG1a cell line was maintained in RPMI medium (Invitrogen) supplemented with 100 units/ml penicillin, 100 μg/ml streptomycin and 5% foetal calf serum. The multiple myeloma (MM) cell line JJN3, the two breast cancer cell lines (MCF7 and MDA-MB-231), the primary chronic lymphocytic leukaemia cells and normal B-lymphocytes were maintained in RPMI medium supplemented with 100 units/ml penicillin, 100 μg/ml streptomycin and 5% foetal calf serum. In addition, 100 μM of acetylcholine was added to the culture media to ensure that the availability of acetylcholine was not a limiting factor in these experiments.
as §4

Data set [16] has as its system KG1a cells. Briefly: Transwell migration assay. As to conditions: for migration: 1 μM peptide, 24 h transwell, vs no peptide control. How it is done:
as §6, §4

In data set [17] the test system is MCF7 cells. The data set is described as follows: Transwell migration assay. As to conditions: for migration: MCF7, 1 μM peptide, 24 h transwell, vs no peptide control. As to the method: as §6, §4
In data set [18] the test system is JJN3 cells. The data set is described as follows: Transwell migration assay. The settings on record: for migration: JJN3, 1 μM peptide, 24 h transwell, vs no peptide control. How it is done:
as §6, §4

In the next data set the test system is normal B-lymphocytes. The data set is described as follows: Transwell migration assay. The settings on record: normal B-lymphocytes from healthy volunteers, 1 μM peptide, 24 h transwell. As to the method:
as §6, §4

Data set [19] relates to MDA-MB-231 cells. The data set is described as follows: Transwell migration assay. The settings on record: for migration: MDA-MB-231, 1 μM peptide, 24 h transwell, vs no peptide control. As to the method:
as §6, §4

In data set [20] the test system is JJN3 cells. Briefly: In vitro proliferation. As to conditions: JJN3, concentrations of peptide >0.1 μM.

For the compound `Nc1ccn([C@@H]2O[C@H](CO)[C@@H](O)[C@@H]2O)c(=O)n1` [Ara-C, reference compound], in the data set with KG1a cells [1], the “apoptosis (cytotoxic effect)” value is recorded as “dose-response at concentrations above 0.1 μM”.

In the case of `CSCC[C@@H]1NC(=O)[C@H](Cc2ccc(O)cc2)NC(=O)[C@H](CO)NC(=O)[C@H](CO)NC(=O)[C@H](Cc2c[nH]c3ccccc23)NC(=O)[C@H](CCCNC(=N)N)NC(=O)[C@H](Cc2c[nH]cn2)NC(=O)[C@H](Cc2ccccc2)NC(=O)[C@H](CCC(=O)O)NC(=O)[C@H](C)NC(=O)[C@H](CCCCN)NC(=O)[C@H](Cc2c[nH]c3ccccc23)NC(=O)[C@H](Cc2c[nH]cn2)NC(=O)[C@H](C(C)C)NC1=O` [NBP-14] (cyclo(AEFHRWSSYMVHWK)), the migration entry in the data set on MEC-1 cells [2] is “significant reduction in cell migration”; in the data set with H929 cells [3], “significant reduction in cell migration”; with primary CLL cells [15], “significant reduction in migration”; in the data set with KG1a cells [16] it was “significantly inhibited”; with MCF7 cells [17] it was “little effect”; in the data set on JJN3 cells [18] it was “significant inhibited”. In addition, the migration result in the data set on normal B-lymphocytes is recorded as “significant reduction”; in the data set on MDA-MB-231 cells [19] it was “significantly inhibited”. For the same compound, the “toxicity in normal (non-malignant) cells” value in [4] is on record as “lack of toxicity”. The “apoptosis (cytotoxic effect)” value with primary CLL cells [5] was “evidence of dose-response at concentrations above 0.1 μM”; in the data set with MEC-1 cells [6], “modest apoptotic effects”; in the data set on KG1a cells [1] it was “modest apoptotic effects”; in the data set with MCF7 cells [7] it was “relatively increased sensitivity”; with H929 cells [8], “modest apoptotic effects”; in the data set on MDA-MB-231 cells [9], “modest apoptotic effects”. Besides, the apoptosis in the data set on primary CLL cells [5] (primary CLL cells, at 1 μM) is listed as approximately 20%. In addition, the proliferation result is “reduced proliferation” in the data set with MEC-1 cells [10]; “reduced proliferation” in the data set with KG1a cells [11]; “not as significant” in the data set with MCF7 cells [12]; “reduced proliferation” with H929 cells [13]; “significant reduction in proliferation” in the data set on MDA-MB-231 cells [14] (MDA-MB-231, peptide concentrations above 0.1 μM, compared with T15 control peptide); “anti-proliferative activity” with JJN3 cells [20]. Further, in the data set on primary CLL cells [15] (primary CLL cells vs normal B-cells, 24 h), the “sensitivity of primary CLL cells to anti-migratory effect compared with normal B-cells” value is reported as “significantly more sensitive”. The “migration (dose-response)” value with KG1a cells [16] (NBP-14 at concentrations ≥1 μM) is listed as “significant decrease in migration”; in the data set on MCF7 cells [17] (MCF7, NBP-14 at concentrations ≥1 μM), “failed to show a significant reduction in migration”; in the data set on JJN3 cells [18] (JJN3, NBP-14 at concentrations ≥1 μM), “significant decrease in migration”; in the data set with MDA-MB-231 cells [19] (MDA-MB-231, NBP-14 at concentrations ≥1 μM), “significant decrease in migration”. The “inhibition of migration compared with T30” value with JJN3 cells [18] (JJN3, 1 μM, 24 h) was “significantly greater extent”.

`Nc1nc(F)nc2c1ncn2[C@@H]1O[C@H](CO)[C@@H](O)[C@@H]1O` [fludarabine, reference compound]: the “apoptosis (cytotoxic effect)” value in the data set with MEC-1 cells [6] and with H929 cells [8] was “induced a dose-response” in each case.

With Rituximab [reference compound], the “apoptosis (cytotoxic effect)” value in the data set on primary CLL cells [5] is “more pronounced dose-response”.

In the case of “T15 (NQFDHYSKQDRCSDL; listed as Homo sapiens) [reference compound]”, the migration result in the data set with primary CLL cells [15] is recorded as “did not significantly altered”; with KG1a cells [16] it was “did not alter”; in the data set with MCF7 cells [17] it was “Neither the T15 nor the T30 peptide showed a significant effect”; in the data set on JJN3 cells [18], “no significant effect”; in the data set with normal B-lymphocytes, “no significant effect”.

Take “T30 (KAEFHRWSSYMVHWKNQFDHYSKQDRCSDL; listed as Homo sapiens) [reference compound]”: the proliferation entry in the data set with MDA-MB-231 cells [14] (MDA-MB-231, sub-nanomolar concentrations) is recorded as “increased proliferation”. Moreover, the migration result in the data set with primary CLL cells [15] is “did not significantly altered”; in the data set on KG1a cells [16], “did not alter”; in the data set on MCF7 cells [17] it was “Neither the T15 nor the T30 peptide showed a significant effect”; with JJN3 cells [18], “significant inhibited”; in the data set on normal B-lymphocytes it was “no significant effect”; with MDA-MB-231 cells [19] it was “significantly inhibited”. For the same compound, the “inhibition of migration compared with NBP-14” value in the data set on MDA-MB-231 cells [19] (MDA-MB-231, 1 μM, 24 h) is on record as “significantly less effective”.
